Measurements as given in PubChem BioAssay AID1963441 (Molecular Pharmacology Branch, DTP, NCI, 2024).
Values joined by “and” are separate entries in the source; they are usually repeats but may differ in a detail not shown here. Equal values may be shown once.

Tested on: NCI-H1876 complex spheroid growth, % test/control
Assay: Anticancer human tumor NCI-H1876 cell line growth inhibition [Asc];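 also: compound exposure lasted 7 days starting three days after seeding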;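 as to viability, T/C: 100% = DMSO vehicle control wells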
Conditions: for viability, T/C: stronger effect = lower value
In short: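 Complex solid-tumor spheroids incorporating human endothelial and mesenchymal stem cells received single agents or combinations over half-log dilution ranges anchored to clinical Cmax.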

[1] = curve of first compound, second compound 0.00316 µM
[2] = curve of first compound, second compound 0.01 µM
[3] = curve of first compound, second compound 0.0316 µM
[4] = curve of first compound, second compound 0.1 µM
[5] = curve of first compound, second compound 0.316 µM
[6] = curve of first compound, second compound 1 µM
[7] = second compound 0.00316 µM, first compound 0.0316 µM
[8] = second compound 0.00316 µM, first compound 0.1 µM
[9] = second compound 0.00316 µM, first compound 0.316 µM
[10] = second compound 0.00316 µM, first compound 1 µM
[11] = second compound 0.01 µM, first compound 0.0316 µM
[12] = second compound 0.01 µM, first compound 0.1 µM
[13] = second compound 0.01 µM, first compound 0.316 µM
[14] = second compound 0.01 µM, first compound 1 µM
[15] = second compound 0.0316 µM, first compound 0.0316 µM
[16] = second compound 0.0316 µM, first compound 0.1 µM
[17] = second compound 0.0316 µM, first compound 0.316 µM
[18] = second compound 0.0316 µM, first compound 1 µM
[19] = second compound 0.1 µM, first compound 0.0316 µM
[20] = second compound 0.1 µM, first compound 0.1 µM
[21] = second compound 0.1 µM, first compound 0.316 µM
[22] = second compound 0.1 µM, first compound 1 µM
[23] = second compound 0.316 µM, first compound 0.0316 µM
[24] = second compound 0.316 µM, first compound 0.1 µM
[25] = second compound 0.316 µM, first compound 0.316 µM
[26] = second compound 0.316 µM, first compound 1 µM
[27] = second compound 1 µM, first compound 0.0316 µM
[28] = second compound 1 µM, first compound 0.1 µM
[29] = second compound 1 µM, first compound 0.316 µM
[30] = second compound 1 µM, first compound 1 µM

In the case of COc1c(OCCCN2CCOCC2)ccc2c3n(c(=NC(=O)c4cnc(N)nc4)nc12)CCN3 + CNC(C)C(=O)NC1CN(S(=O)(=O)c2cccc(S(=O)(=O)N3CCC4CCC(C(=O)NC(c5ccccc5)c5ccccc5)N4C(=O)C(NC(=O)C(C)NC)C3)c2)CCC2CCC(C(=O)NC(c3ccccc3)c3ccccc3)N2C1=O, the IC50 [1] is reported as > 1 µM, the IC50 [2] is reported as 0.734 µM and the IC50 [3] is reported as 0.789 µM. The IC50 [4] was 0.701 µM, the IC50 [5] was > 1 µM and the IC50 [6] was 0.901 µM. The viability, T/C (second compound 0.00316 µM, first compound 0.00316 µM) was 106%, the viability, T/C (second compound 0.00316 µM, first compound 0.01 µM) was 107% and the viability, T/C [7] was 103%. It also gave a viability, T/C [8] of 81.5%, a viability, T/C [9] of 64.5% and a viability, T/C [10] of 49.2%. It also gave a viability, T/C (second compound 0.01 µM, first compound 0.00316 µM) of 105%, a viability, T/C (second compound 0.01 µM, first compound 0.01 µM) of 106% and a viability, T/C [11] of 107%. For the same molecule, the viability, T/C [12] was 82.1%, the viability, T/C [13] was 63.3% and the viability, T/C [14] was 45%. For the same molecule, the viability, T/C (second compound 0.0316 µM, first compound 0.00316 µM) was 100%, the viability, T/C (second compound 0.0316 µM, first compound 0.01 µM) was 103% and the viability, T/C [15] was 99.4%. The viability, T/C [16] was 84.1%, the viability, T/C [17] was 62.5% and the viability, T/C [18] was 46.7%. For the same molecule, the viability, T/C (second compound 0.1 µM, first compound 0.00316 µM) was 102%, the viability, T/C (second compound 0.1 µM, first compound 0.01 µM) was 101% and the viability, T/C [19] was 98.6%. The viability, T/C [20] was 82.3%, the viability, T/C [21] was 63.8% and the viability, T/C [22] was 44%. The viability, T/C (second compound 0.316 µM, first compound 0.00316 µM) was 107%, the viability, T/C (second compound 0.316 µM, first compound 0.01 µM) was 117% and the viability, T/C [23] was 93.6%. The viability, T/C [24] was 86.2%, the viability, T/C [25] was 70% and the viability, T/C [26] was 56.4%. The viability, T/C (second compound 1 µM, first compound 0.00316 µM) was 105%, the viability, T/C (second compound 1 µM, first compound 0.01 µM) was 109% and the viability, T/C [27] was 96.6%. The viability, T/C [28] was 86.2%, the viability, T/C [29] was 67.5% and the viability, T/C [30] was 48.2%.

In the case of C=C(F)C(=O)N1CCN(c2nc(OCC3CCCN3C)nc3c2CCN(c2cccc4cccc(Cl)c24)C3)CC1CC#N (stereo not given) + CCN1C(C(=O)NC23CCC(C(=O)O)(CC2)CC3)C(c2cccc(Cl)c2F)C2(C(=O)Nc3cc(Cl)ccc32)C12CCCCC2, the IC50 (curve of first compound, second compound 0.00949 µM) is reported as 6.65 µM, the IC50 (curve of first compound, second compound 0.03 µM) is reported as 6.95 µM and the IC50 (curve of first compound, second compound 0.0949 µM) is reported as 6.91 µM. It also gave an IC50 (curve of first compound, second compound 0.3 µM) of 6.79 µM, an IC50 (curve of first compound, second compound 0.949 µM) of 6.4 µM and an IC50 (curve of first compound, second compound 3 µM) of 5.67 µM. The viability, T/C (second compound 0.00949 µM, first compound 0.0316 µM) was 93.6%, the viability, T/C (second compound 0.00949 µM, first compound 0.1 µM) was 102% and the viability, T/C (second compound 0.00949 µM, first compound 0.316 µM) was 102%. For the same molecule, the viability, T/C (second compound 0.00949 µM, first compound 1 µM) was 107%, the viability, T/C (second compound 0.00949 µM, first compound 3.16 µM) was 107% and the viability, T/C (second compound 0.00949 µM, first compound 10 µM) was 21.5%. It also gave a viability, T/C (second compound 0.03 µM, first compound 0.0316 µM) of 104%, a viability, T/C (second compound 0.03 µM, first compound 0.1 µM) of 108% and a viability, T/C (second compound 0.03 µM, first compound 0.316 µM) of 109%. It also gave a viability, T/C (second compound 0.03 µM, first compound 1 µM) of 110%, a viability, T/C (second compound 0.03 µM, first compound 3.16 µM) of 106% and a viability, T/C (second compound 0.03 µM, first compound 10 µM) of 24%. It also gave a viability, T/C (second compound 0.0949 µM, first compound 0.0316 µM) of 107%, a viability, T/C (second compound 0.0949 µM, first compound 0.1 µM) of 99.3% and a viability, T/C (second compound 0.0949 µM, first compound 0.316 µM) of 101%. The viability, T/C (second compound 0.0949 µM, first compound 1 µM) was 98.5%, the viability, T/C (second compound 0.0949 µM, first compound 3.16 µM) was 101% and the viability, T/C (second compound 0.0949 µM, first compound 10 µM) was 26%. The viability, T/C (second compound 0.3 µM, first compound 0.0316 µM) was 104%, the viability, T/C (second compound 0.3 µM, first compound 0.1 µM) was 92.1% and the viability, T/C (second compound 0.3 µM, first compound 0.316 µM) was 99.3%. It also gave a viability, T/C (second compound 0.3 µM, first compound 1 µM) of 110%, a viability, T/C (second compound 0.3 µM, first compound 3.16 µM) of 111% and a viability, T/C (second compound 0.3 µM, first compound 10 µM) of 22.9%. For the same molecule, the viability, T/C (second compound 0.949 µM, first compound 0.0316 µM) was 111%, the viability, T/C (second compound 0.949 µM, first compound 0.1 µM) was 107% and the viability, T/C (second compound 0.949 µM, first compound 0.316 µM) was 108%. It also gave a viability, T/C (second compound 0.949 µM, first compound 1 µM) of 116%, a viability, T/C (second compound 0.949 µM, first compound 3.16 µM) of 109% and a viability, T/C (second compound 0.949 µM, first compound 10 µM) of 12.7%. For the same molecule, the viability, T/C (second compound 3 µM, first compound 0.0316 µM) was 109%, the viability, T/C (second compound 3 µM, first compound 0.1 µM) was 109% and the viability, T/C (second compound 3 µM, first compound 0.316 µM) was 110%. It also gave a viability, T/C (second compound 3 µM, first compound 1 µM) of 112%, a viability, T/C (second compound 3 µM, first compound 3.16 µM) of 93.8% and a viability, T/C (second compound 3 µM, first compound 10 µM) of 7.68%.

For CCN1CCN(Cc2ccc(Nc3ncc(F)c(-c4cc(F)c5nc(C)n(C(C)C)c5c4)n3)nc2)CC1, the viability, T/C (compound 0.00316 µM) was 101% and 103% and 104%, the viability, T/C (compound 0.01 µM) was 94.1% and 101% and 89.8% and the viability, T/C (compound 0.0316 µM) was 97.1% and 101% and 106%. For the same molecule, the viability, T/C (compound 0.1 µM) was 105% and 100% and 106%, the viability, T/C (compound 0.316 µM) was 114% (2×) and 120% and the viability, T/C (compound 1 µM) was 126% and 132% and 131%. The IC50 (curve of compound) was > 1 µM.

In the case of C=C(F)C(=O)N1CCN(c2nc(OCC3CCCN3C)nc3c2CCN(c2cccc4cccc(Cl)c24)C3)CC1CC#N (stereo not given) + CNC(C)C(=O)NC1CN(S(=O)(=O)c2cccc(S(=O)(=O)N3CCC4CCC(C(=O)NC(c5ccccc5)c5ccccc5)N4C(=O)C(NC(=O)C(C)NC)C3)c2)CCC2CCC(C(=O)NC(c3ccccc3)c3ccccc3)N2C1=O, the IC50 [1] is reported as 5.58 µM, the IC50 [2] is reported as 5.6 µM and the IC50 [3] is reported as 5.59 µM. The IC50 [4] was 5.66 µM, the IC50 [5] was 5.73 µM and the IC50 [6] was 5.46 µM. The viability, T/C [7] was 96.9%, the viability, T/C [8] was 97.3% and the viability, T/C [9] was 110%. For the same molecule, the viability, T/C [10] was 89.3%, the viability, T/C (second compound 0.00316 µM, first compound 3.16 µM) was 99% and the viability, T/C (second compound 0.00316 µM, first compound 10 µM) was 0.33%. It also gave a viability, T/C [11] of 104%, a viability, T/C [12] of 96.2% and a viability, T/C [13] of 103%. The viability, T/C [14] was 103%, the viability, T/C (second compound 0.01 µM, first compound 3.16 µM) was 98.4% and the viability, T/C (second compound 0.01 µM, first compound 10 µM) was 1.04%. The viability, T/C [15] was 106%, the viability, T/C [16] was 91.5% and the viability, T/C [17] was 98.2%. It also gave a viability, T/C [18] of 95.2%, a viability, T/C (second compound 0.0316 µM, first compound 3.16 µM) of 103% and a viability, T/C (second compound 0.0316 µM, first compound 10 µM) of 0.33%. The viability, T/C [19] was 98.2%, the viability, T/C [20] was 95.4% and the viability, T/C [21] was 102%. It also gave a viability, T/C [22] of 115%, a viability, T/C (second compound 0.1 µM, first compound 3.16 µM) of 100% and a viability, T/C (second compound 0.1 µM, first compound 10 µM) of 0.52%. The viability, T/C [23] was 106%, the viability, T/C [24] was 98.7% and the viability, T/C [25] was 107%. It also gave a viability, T/C [26] of 96.3%, a viability, T/C (second compound 0.316 µM, first compound 3.16 µM) of 108% and a viability, T/C (second compound 0.316 µM, first compound 10 µM) of 0.32%. It also gave a viability, T/C [27] of 96.2%, a viability, T/C [28] of 85.5% and a viability, T/C [29] of 92.1%. The viability, T/C [30] was 102%, the viability, T/C (second compound 1 µM, first compound 3.16 µM) was 97.2% and the viability, T/C (second compound 1 µM, first compound 10 µM) was 0.37%.

For COc1c(OCCCN2CCOCC2)ccc2c3n(c(=NC(=O)c4cnc(N)nc4)nc12)CCN3, the viability, T/C (compound 0.00316 µM) was 106% and 91.5% and 100%, the viability, T/C (compound 0.01 µM) was 89.7% and 97.9% and 107% and the viability, T/C (compound 0.0316 µM) was 85% and 84.5% and 99.3%. The viability, T/C (compound 0.1 µM) was 79.1% and 75.3% and 72%, the viability, T/C (compound 0.316 µM) was 64.5% and 59.5% and 60.7% and the viability, T/C (compound 1 µM) was 48.8% and 45.6% and 44.9%. The IC50 (curve of compound) was 0.724 µM and 0.679 µM and 0.992 µM.
